From patent US20260166162A1, “CARBON CHAIN SUBSTANCE FOR REGULATING TRANSMEMBRANE TRANSPORT AND FLUIDITY OF CELL MEMBRANES, AND PREPARATION AND USE THEREOF” (priority 2022, published 2026)

Experiments:
[1] = tested on: 293T cells; test: Cellular phagocytosis of DiD-loaded lipid vesicles (nano-drugs) by 293T cells (Example II-51, Table II-29); assay type: cell-based; conditions: 293T cells pretreated 4 h, DiD lipid vesicles 2 h, n=3, untreated control 226.46 ± 1.26
[2] = tested on: Hela cells; test: Cell membrane fluidity (Laurdan fluorescence recovery) in Hela cells; assay type: cell-based

## C/C=C/C(=O)O [Crotonic acid]
[1]; 2 nM
  Fluorescence intensity: 157.30 ± 20.43
[1]; 5 nM
  Fluorescence intensity: 159.29 ± 0.43
[1]; 10 nM
  Fluorescence intensity: 94.34 ± 0.43
[1]; 50 nM
  Fluorescence intensity: 51.34 ± 0.43
[1]; 100 nM
  Fluorescence intensity: 59.65 ± 1.57
[1]; 1 uM
  Fluorescence intensity: 458.20 ± 20.41
[1]; 10 uM
  Fluorescence intensity: 326.69 ± 20.40
[1]; 50 uM
  Fluorescence intensity: 200.73 ± 10.31
[1]; 100 uM
  Fluorescence intensity: 218.13 ± 8.22

## CCCCCCCC/C=C\CCCCCCCC(=O)O.OCCO [Ethylene glycol-oleic acid]
[1]; 2 nM
  Fluorescence intensity: 182.21 ± 18.23
[1]; 5 nM
  Fluorescence intensity: 121.07 ± 11.26
[1]; 10 nM
  Fluorescence intensity: 69.12 ± 4.26
[1]; 50 nM
  Fluorescence intensity: 64.90 ± 1.56
[1]; 100 nM
  Fluorescence intensity: 44.23 ± 4.26
[1]; 1 uM
  Fluorescence intensity: 368.97 ± 18.56
[1]; 50 uM
  Fluorescence intensity: 69.34 ± 5.32
[1]; 100 uM
  Fluorescence intensity: 58.72 ± 8.75

## CCCCCCCCCCCCCCCC(=O)OCC1OC(O)C(O)C(O)C1O (centres unmarked) [Glucose-C16]
[1]; 2 nM
  Fluorescence intensity: 134.65 ± 15.22
[1]; 5 nM
  Fluorescence intensity: 114.00 ± 11.02
[1]; 10 nM
  Fluorescence intensity: 94.34 ± 4.57
[1]; 50 nM
  Fluorescence intensity: 96.63 ± 6.54
[1]; 100 nM
  Fluorescence intensity: 172.88 ± 26.33
[1]; 1 uM
  Fluorescence intensity: 198.54 ± 8.55
[1]; 10 uM
  Fluorescence intensity: 170.16 ± 20.33
[1]; 50 uM
  Fluorescence intensity: 110.15 ± 10.22
[1]; 100 uM
  Fluorescence intensity: 104.90 ± 4.91

## CCC=CCC=CCC=CCCCCCCCC(=O)OCC1OC(O)C(O)C(O)C1O (centres unmarked) [Glucose-linolenic acid]
[2]; 2 nM, 20 s
  Fluorescence recovery rate %: 63.78%
[2]; 2 nM, 40 s
  Fluorescence recovery rate %: 64.18%
[2]; 2 nM, 60 s
  Fluorescence recovery rate %: 65.22%
[2]; 2 nM, 80 s
  Fluorescence recovery rate %: 65.16%
[2]; 5 nM, 20 s
  Fluorescence recovery rate %: 64.35%
[2]; 5 nM, 40 s
  Fluorescence recovery rate %: 64.83%
[2]; 5 nM, 60 s
  Fluorescence recovery rate %: 65.17%
[2]; 5 nM, 80 s
  Fluorescence recovery rate %: 66.59%
[2]; 10 nM, 20 s
  Fluorescence recovery rate %: 64.76%
[2]; 10 nM, 40 s
  Fluorescence recovery rate %: 64.87%
[2]; 10 nM, 60 s
  Fluorescence recovery rate %: 65.11%
[2]; 10 nM, 80 s
  Fluorescence recovery rate %: 66.83%
[2]; 50 nM, 20 s
  Fluorescence recovery rate %: 63.24%
[2]; 50 nM, 40 s
  Fluorescence recovery rate %: 64.10%
[2]; 50 nM, 60 s
  Fluorescence recovery rate %: 64.54%
[2]; 50 nM, 80 s
  Fluorescence recovery rate %: 65.23%
[2]; 50 μM, 20 s
  Fluorescence recovery rate %: 63.11%
[2]; 50 μM, 40 s
  Fluorescence recovery rate %: 70.49%
[2]; 50 μM, 60 s
  Fluorescence recovery rate %: 74.88%
[2]; 50 μM, 80 s
  Fluorescence recovery rate %: 79.24%
[2]; 100 μM, 20 s
  Fluorescence recovery rate %: 65.93%
[2]; 100 μM, 40 s
  Fluorescence recovery rate %: 69.87%
[2]; 100 μM, 60 s
  Fluorescence recovery rate %: 75.03%
[2]; 100 μM, 80 s
  Fluorescence recovery rate %: 80.83%

## CCCCCC(=O)O [Hexanoic acid]
[1]; 2 nM
  Fluorescence intensity: 131.26 ± 11.25
[1]; 5 nM
  Fluorescence intensity: 114.00 ± 14.2
[1]; 10 nM
  Fluorescence intensity: 94.34 ± 4.25
[1]; 50 nM
  Fluorescence intensity: 96.63 ± 6.32
[1]; 100 nM
  Fluorescence intensity: 30.71 ± 1.25
[1]; 1 uM
  Fluorescence intensity: 102.07 ± 12.2
[1]; 10 uM
  Fluorescence intensity: 125.10 ± 12.55
[1]; 50 uM
  Fluorescence intensity: 288.42 ± 8.32
[1]; 100 uM
  Fluorescence intensity: 325.58 ± 15.26

## CCCCCCCCCCCC(=O)NCCCCC(N)C(=O)O (centres unmarked) [Lys-C12]
[1]; 2 nM
  Fluorescence intensity: 175.30 ± 15.23
[1]; 5 nM
  Fluorescence intensity: 103.11 ± 10.33
[1]; 10 nM
  Fluorescence intensity: 49.05 ± 5.26
[1]; 50 nM
  Fluorescence intensity: 24.16 ± 3.36
[1]; 100 nM
  Fluorescence intensity: 25.45 ± 5.22
[1]; 1 uM
  Fluorescence intensity: 367.61 ± 27.11
[1]; 10 uM
  Fluorescence intensity: 417.28 ± 17.23
[1]; 50 uM
  Fluorescence intensity: 110.76 ± 8.54
[1]; 100 uM
  Fluorescence intensity: 104.90 ± 6.23

## CCCCCCCCCCCCCCCCCCCCCCCC(=O)OC(C)C(N)C(=O)O (centres unmarked) [Threonine-C24]
[1]; 2 nM
  Fluorescence intensity: 39.09 ± 7.89
[1]; 5 nM
  Fluorescence intensity: 38.29 ± 5.26
[1]; 10 nM
  Fluorescence intensity: 22.90 ± 1.22
[1]; 50 nM
  Fluorescence intensity: 12.84 ± 2.22
[1]; 100 nM
  Fluorescence intensity: 14.81 ± 1.33
[1]; 1 uM
  Fluorescence intensity: 435.55 ± 15.26
[1]; 10 uM
  Fluorescence intensity: 416.78 ± 12.33
[1]; 50 uM
  Fluorescence intensity: 46.51 ± 5.21
[1]; 100 uM
  Fluorescence intensity: 30.64 ± 5.55

## CCCCCC/C=C\CCCCCCCC(=O)OC(C)C(N)C(=O)O (stereo not drawn) [Threonine-cis-9-hexadecanoic acid]
[1]; 2 nM
  Fluorescence intensity: 142.94
[1]; 5 nM
  Fluorescence intensity: 67.71 ± 5.67
[1]; 10 nM
  Fluorescence intensity: 64.00 ± 4.06
[1]; 50 nM
  Fluorescence intensity: 74.71 ± 5.36
[1]; 100 nM
  Fluorescence intensity: 56.71 ± 6.74
[1]; 1 uM
  Fluorescence intensity: 153.25 ± 13.25
[1]; 10 uM
  Fluorescence intensity: 126.64 ± 11.02
[1]; 50 uM
  Fluorescence intensity: 37.23 ± 2.35
[1]; 100 uM
  Fluorescence intensity: 61.12 ± 5.21

## CCCCCCCC/C=C\CCCCCCCC(=O)OCCOCC(OCCO)C1OCC(OCCO)C1OCCO (centres unmarked) [Tween-80]
[1]; 2 nM
  Fluorescence intensity: 45.04
[1]; 5 nM
  Fluorescence intensity: 32.41
[1]; 10 nM
  Fluorescence intensity: 21.85
[1]; 50 nM
  Fluorescence intensity: 17.28
[1]; 100 nM
  Fluorescence intensity: 11.89
[1]; 1 uM
  Fluorescence intensity: 152.11
[1]; 10 uM
  Fluorescence intensity: 103.58
[1]; 50 uM
  Fluorescence intensity: 18.48
[1]; 100 uM
  Fluorescence intensity: 13.34 ± 3.24

## O=C(O)CCCCCCCCCC(=O)OCC(O)C1OC(=O)C(O)=C1O (centres unmarked) [VC-undecanedioic acid]
[1]; 2 nM
  Fluorescence intensity: 121.02
[1]; 5 nM
  Fluorescence intensity: 92.26
[1]; 10 nM
  Fluorescence intensity: 78.76 ± 7.89
[1]; 50 nM
  Fluorescence intensity: 87.57 ± 5.57
[1]; 100 nM
  Fluorescence intensity: 96.31 ± 6.21
[1]; 1 uM
  Fluorescence intensity: 199.22 ± 19.26
[1]; 10 uM
  Fluorescence intensity: 217.49 ± 14.22
[1]; 50 uM
  Fluorescence intensity: 106.96 ± 5.64
[1]; 100 uM
  Fluorescence intensity: 110.44 ± 9.87

## CCCCCCCCC=CCCCCCCCC(=O)OCC(O)C1OC(=O)C(O)=C1O (centres unmarked) [Vc-oleic acid]
[2]; 2 nM, 20 s
  Fluorescence recovery rate %: 61.48%
[2]; 2 nM, 40 s
  Fluorescence recovery rate %: 62.33%
[2]; 2 nM, 60 s
  Fluorescence recovery rate %: 63.41%
[2]; 2 nM, 80 s
  Fluorescence recovery rate %: 64.57%
[2]; 5 nM, 20 s
  Fluorescence recovery rate %: 61.87%
[2]; 5 nM, 40 s
  Fluorescence recovery rate %: 62.99%
[2]; 5 nM, 60 s
  Fluorescence recovery rate %: 63.47%
[2]; 5 nM, 80 s
  Fluorescence recovery rate %: 63.21%
[2]; 10 nM, 20 s
  Fluorescence recovery rate %: 63.72%
[2]; 10 nM, 40 s
  Fluorescence recovery rate %: 63.75%
[2]; 10 nM, 60 s
  Fluorescence recovery rate %: 64.67%
[2]; 10 nM, 80 s
  Fluorescence recovery rate %: 65.92%
[2]; 50 nM, 20 s
  Fluorescence recovery rate %: 62.43%
[2]; 50 nM, 40 s
  Fluorescence recovery rate %: 62.62%
[2]; 50 nM, 60 s
  Fluorescence recovery rate %: 63.37%
[2]; 50 nM, 80 s
  Fluorescence recovery rate %: 64.24%
[2]; 50 μM, 20 s
  Fluorescence recovery rate %: 62.54%
[2]; 50 μM, 40 s
  Fluorescence recovery rate %: 67.11%
[2]; 50 μM, 60 s
  Fluorescence recovery rate %: 74.55%
[2]; 50 μM, 80 s
  Fluorescence recovery rate %: 76.57%
[2]; 100 μM, 20 s
  Fluorescence recovery rate %: 61.66%
[2]; 100 μM, 40 s
  Fluorescence recovery rate %: 73.65%
[2]; 100 μM, 60 s
  Fluorescence recovery rate %: 77.32%
[2]; 100 μM, 80 s
  Fluorescence recovery rate %: 78.61%

## adenosine monophosphate-linoleic acid
[2]; 2 nM, 20 s
  Fluorescence recovery rate %: 62.11%
[2]; 2 nM, 40 s
  Fluorescence recovery rate %: 62.98%
[2]; 2 nM, 60 s
  Fluorescence recovery rate %: 64.26%
[2]; 2 nM, 80 s
  Fluorescence recovery rate %: 68.17%
[2]; 5 nM, 20 s
  Fluorescence recovery rate %: 63.44%
[2]; 5 nM, 40 s
  Fluorescence recovery rate %: 64.22%
[2]; 5 nM, 60 s
  Fluorescence recovery rate %: 65.78%
[2]; 5 nM, 80 s
  Fluorescence recovery rate %: 66.39%
[2]; 10 nM, 20 s
  Fluorescence recovery rate %: 63.22%
[2]; 10 nM, 40 s
  Fluorescence recovery rate %: 63.48%
[2]; 10 nM, 60 s
  Fluorescence recovery rate %: 64.42%
[2]; 10 nM, 80 s
  Fluorescence recovery rate %: 65.93%
[2]; 50 nM, 20 s
  Fluorescence recovery rate %: 64.25%
[2]; 50 nM, 40 s
  Fluorescence recovery rate %: 64.66%
[2]; 50 nM, 60 s
  Fluorescence recovery rate %: 65.33%
[2]; 50 nM, 80 s
  Fluorescence recovery rate %: 66.23%
[2]; 50 μM, 20 s
  Fluorescence recovery rate %: 64.44%
[2]; 50 μM, 40 s
  Fluorescence recovery rate %: 70.73%
[2]; 50 μM, 60 s
  Fluorescence recovery rate %: 74.64%
[2]; 50 μM, 80 s
  Fluorescence recovery rate %: 80.57%
[2]; 100 μM, 20 s
  Fluorescence recovery rate %: 63.22%
[2]; 100 μM, 40 s
  Fluorescence recovery rate %: 67.48%
[2]; 100 μM, 60 s
  Fluorescence recovery rate %: 75.42%
[2]; 100 μM, 80 s
  Fluorescence recovery rate %: 79.93%
